Data taken from ChEMBL document CHEMBL4507264, “Data for DCP probe BAY-7598” (2021).

What was measured:
[1] = target: Serine/threonine-protein kinase ULK1 (Homo sapiens) (UniProt O75385); details: Compound concentration 1000.0 nM
[2] = target: Serine/threonine-protein kinase MAK (Homo sapiens) (UniProt P20794); details: Compound concentration 1000.0 nM
[3] = target: Muscarinic acetylcholine receptor M4 (Homo sapiens) (UniProt P08173); details: Compound concentration 10.0 uM
[4] = target: AP2-associated protein kinase 1 (Homo sapiens) (UniProt Q2M2I8); details: Compound concentration 1000.0 nM
[5] = system: Tyrosine-protein kinase ABL1 (Homo sapiens), P00519 [H396P]; details: Compound concentration 1000.0 nM
[6] = target: Maternal embryonic leucine zipper kinase (Homo sapiens) (UniProt Q14680); details: Compound concentration 1000.0 nM
[7] = target: TGF-beta receptor type-1 (Homo sapiens) (UniProt P36897); details: Compound concentration 1000.0 nM
[8] = target: Tyrosine-protein kinase receptor Tie-1 (Homo sapiens) (UniProt P35590); details: Compound concentration 1000.0 nM
[9] = target: Vascular endothelial growth factor receptor 1 (Homo sapiens) (UniProt P17948); details: Compound concentration 1000.0 nM
[10] = target: T1, Muscarinic acetylcholine receptor M1 (Homo sapiens) (UniProt P11229); details: Compound concentration 10.0 uM
T1 sequence (whole entry): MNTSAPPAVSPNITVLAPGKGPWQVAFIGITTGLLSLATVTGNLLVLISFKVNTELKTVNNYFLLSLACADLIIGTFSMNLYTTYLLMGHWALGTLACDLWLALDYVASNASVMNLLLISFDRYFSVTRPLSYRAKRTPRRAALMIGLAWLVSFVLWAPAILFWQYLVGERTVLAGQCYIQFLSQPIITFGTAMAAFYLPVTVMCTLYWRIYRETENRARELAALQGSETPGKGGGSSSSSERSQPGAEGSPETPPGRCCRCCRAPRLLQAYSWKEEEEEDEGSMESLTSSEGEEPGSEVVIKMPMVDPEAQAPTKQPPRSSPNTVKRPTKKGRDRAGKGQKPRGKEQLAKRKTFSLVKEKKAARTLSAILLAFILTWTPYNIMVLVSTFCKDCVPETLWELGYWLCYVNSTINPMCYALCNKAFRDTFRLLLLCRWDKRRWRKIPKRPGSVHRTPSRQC

[11] = target: Protein kinase C epsilon type (Homo sapiens) (UniProt Q02156); details: Compound concentration 1000.0 nM
[12] = target: Dual specificity mitogen-activated protein kinase kinase 5 (Homo sapiens) (UniProt Q13163); details: Compound concentration 1000.0 nM
[13] = target: Serine/threonine-protein kinase 38 (Homo sapiens) (UniProt Q15208); details: Compound concentration 1000.0 nM
[14] = target: Mitogen-activated protein kinase kinase kinase kinase 3 (Homo sapiens) (UniProt Q8IVH8); details: Compound concentration 1000.0 nM
[15] = target: Focal adhesion kinase 1 (Homo sapiens) (UniProt Q05397); details: Compound concentration 1000.0 nM
[16] = target: Serine/threonine-protein kinase TNNI3K (Homo sapiens) (UniProt Q59H18); details: Compound concentration 1000.0 nM
[17] = target: Ephrin type-B receptor 4 (Homo sapiens) (UniProt P54760); details: Compound concentration 1000.0 nM
[18] = target: cAMP-dependent protein kinase catalytic subunit PRKX (Homo sapiens) (UniProt P51817); details: Compound concentration 1000.0 nM
[19] = system: Hepatocyte growth factor receptor (Homo sapiens), P08581 [Y1235D]; details: Compound concentration 1000.0 nM
[20] = target: Death-associated protein kinase 2 (Homo sapiens) (UniProt Q9UIK4); details: Compound concentration 1000.0 nM
[21] = target: cAMP-dependent protein kinase catalytic subunit alpha (Homo sapiens) (UniProt P17612); details: Compound concentration 1000.0 nM
[22] = system: Epidermal growth factor receptor (Homo sapiens), P00533 [G719S]; details: Compound concentration 1000.0 nM
[23] = target: Glycogen synthase kinase-3 beta (Homo sapiens) (UniProt P49841); details: Compound concentration 1000.0 nM
[24] = system: Epidermal growth factor receptor (Homo sapiens), P00533 [UNDEFINED MUTATION]; details: Compound concentration 1000.0 nM
[25] = target: T2, D(4) dopamine receptor (Homo sapiens) (UniProt P21917); details: Compound concentration 10.0 uM
T2 sequence (whole entry): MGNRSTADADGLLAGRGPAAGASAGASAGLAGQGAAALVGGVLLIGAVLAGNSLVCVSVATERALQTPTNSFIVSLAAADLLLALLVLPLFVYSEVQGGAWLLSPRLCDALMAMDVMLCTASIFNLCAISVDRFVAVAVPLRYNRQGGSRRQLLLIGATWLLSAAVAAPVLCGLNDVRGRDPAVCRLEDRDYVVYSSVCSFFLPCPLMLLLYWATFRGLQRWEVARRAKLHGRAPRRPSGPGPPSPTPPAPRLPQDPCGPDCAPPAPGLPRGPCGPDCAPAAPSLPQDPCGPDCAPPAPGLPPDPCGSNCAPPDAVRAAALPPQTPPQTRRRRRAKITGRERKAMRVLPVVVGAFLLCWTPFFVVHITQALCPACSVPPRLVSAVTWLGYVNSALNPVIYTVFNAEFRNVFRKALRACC

[26] = target: Serine/threonine-protein kinase Chk2 (Homo sapiens) (UniProt O96017); details: Compound concentration 1000.0 nM
[27] = target: RAC-alpha serine/threonine-protein kinase (Homo sapiens) (UniProt P31749); details: Compound concentration 1000.0 nM
[28] = target: Serine/threonine-protein kinase 26 (Homo sapiens) (UniProt Q9P289); details: Compound concentration 1000.0 nM
[29] = target: Mitogen-activated protein kinase 4 (Homo sapiens) (UniProt P31152); details: Compound concentration 1000.0 nM
[30] = target: Protein kinase C delta type (Homo sapiens) (UniProt Q05655); details: Compound concentration 1000.0 nM
[31] = system: Proto-oncogene tyrosine-protein kinase receptor Ret (Homo sapiens), P07949 [V804L]; details: Compound concentration 1000.0 nM
[32] = target: Ephrin type-A receptor 8 (Homo sapiens) (UniProt P29322); details: Compound concentration 1000.0 nM
[33] = target: Serine/threonine-protein kinase Sgk3 (Homo sapiens) (UniProt Q96BR1); details: Compound concentration 1000.0 nM

Sequence of Ephrin type-B receptor 4 (Homo sapiens) (P54760 whole entry): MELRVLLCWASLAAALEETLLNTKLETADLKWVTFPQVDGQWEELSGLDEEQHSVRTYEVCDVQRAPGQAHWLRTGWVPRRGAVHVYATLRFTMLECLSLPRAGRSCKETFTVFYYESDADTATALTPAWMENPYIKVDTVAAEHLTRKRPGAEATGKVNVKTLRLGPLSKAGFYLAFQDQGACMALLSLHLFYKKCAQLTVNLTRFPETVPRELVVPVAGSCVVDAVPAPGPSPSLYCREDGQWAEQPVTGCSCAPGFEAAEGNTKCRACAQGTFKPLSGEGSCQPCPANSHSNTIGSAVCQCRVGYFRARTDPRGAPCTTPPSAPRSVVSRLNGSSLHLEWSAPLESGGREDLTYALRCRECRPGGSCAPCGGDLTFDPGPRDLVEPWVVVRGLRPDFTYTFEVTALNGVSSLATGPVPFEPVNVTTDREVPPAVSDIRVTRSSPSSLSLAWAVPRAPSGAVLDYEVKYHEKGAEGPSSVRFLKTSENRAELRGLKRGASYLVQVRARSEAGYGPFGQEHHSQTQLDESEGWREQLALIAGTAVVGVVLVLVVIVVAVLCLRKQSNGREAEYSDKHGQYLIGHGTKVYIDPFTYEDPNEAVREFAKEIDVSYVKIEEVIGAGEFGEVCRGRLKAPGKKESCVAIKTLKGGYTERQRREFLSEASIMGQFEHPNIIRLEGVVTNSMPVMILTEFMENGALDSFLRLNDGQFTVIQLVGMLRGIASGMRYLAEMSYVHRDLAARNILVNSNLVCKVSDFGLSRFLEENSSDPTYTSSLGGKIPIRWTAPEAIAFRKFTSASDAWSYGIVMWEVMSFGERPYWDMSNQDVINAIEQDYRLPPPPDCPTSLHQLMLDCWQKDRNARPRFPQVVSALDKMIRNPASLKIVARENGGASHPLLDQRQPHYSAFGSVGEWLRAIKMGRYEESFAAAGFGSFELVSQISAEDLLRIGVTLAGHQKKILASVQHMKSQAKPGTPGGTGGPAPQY
Sequence of Serine/threonine-protein kinase MAK (Homo sapiens) (P20794 whole entry): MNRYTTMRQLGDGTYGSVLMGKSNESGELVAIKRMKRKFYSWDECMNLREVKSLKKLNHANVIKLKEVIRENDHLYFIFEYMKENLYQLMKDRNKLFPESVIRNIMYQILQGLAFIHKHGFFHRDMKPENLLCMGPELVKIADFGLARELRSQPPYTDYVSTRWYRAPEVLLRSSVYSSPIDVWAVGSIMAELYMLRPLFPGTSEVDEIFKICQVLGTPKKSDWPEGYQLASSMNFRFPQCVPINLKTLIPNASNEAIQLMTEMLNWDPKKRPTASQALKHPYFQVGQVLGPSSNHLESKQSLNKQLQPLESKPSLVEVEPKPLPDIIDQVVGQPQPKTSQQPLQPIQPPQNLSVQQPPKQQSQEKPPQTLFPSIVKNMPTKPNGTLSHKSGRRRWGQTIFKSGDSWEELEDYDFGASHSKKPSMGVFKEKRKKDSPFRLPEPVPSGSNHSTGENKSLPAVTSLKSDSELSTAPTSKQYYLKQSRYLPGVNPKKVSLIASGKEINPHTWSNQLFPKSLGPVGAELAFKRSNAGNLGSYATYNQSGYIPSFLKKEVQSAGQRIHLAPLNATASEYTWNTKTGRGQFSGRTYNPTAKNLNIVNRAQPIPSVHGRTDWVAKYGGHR
Sequence of Glycogen synthase kinase-3 beta (Homo sapiens) (P49841 whole entry, looked up): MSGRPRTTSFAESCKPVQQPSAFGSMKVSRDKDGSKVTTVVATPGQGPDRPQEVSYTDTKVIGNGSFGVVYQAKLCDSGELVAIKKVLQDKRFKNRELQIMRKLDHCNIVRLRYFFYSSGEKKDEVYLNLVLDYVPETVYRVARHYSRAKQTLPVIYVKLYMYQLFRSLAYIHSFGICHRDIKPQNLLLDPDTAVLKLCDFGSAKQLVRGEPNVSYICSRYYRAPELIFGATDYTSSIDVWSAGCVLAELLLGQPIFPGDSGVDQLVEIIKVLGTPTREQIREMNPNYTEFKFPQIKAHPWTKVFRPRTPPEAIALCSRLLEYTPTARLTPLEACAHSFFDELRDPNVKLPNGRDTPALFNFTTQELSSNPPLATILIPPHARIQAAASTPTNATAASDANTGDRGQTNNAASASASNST
Sequence of cAMP-dependent protein kinase catalytic subunit PRKX (Homo sapiens) (P51817 whole entry): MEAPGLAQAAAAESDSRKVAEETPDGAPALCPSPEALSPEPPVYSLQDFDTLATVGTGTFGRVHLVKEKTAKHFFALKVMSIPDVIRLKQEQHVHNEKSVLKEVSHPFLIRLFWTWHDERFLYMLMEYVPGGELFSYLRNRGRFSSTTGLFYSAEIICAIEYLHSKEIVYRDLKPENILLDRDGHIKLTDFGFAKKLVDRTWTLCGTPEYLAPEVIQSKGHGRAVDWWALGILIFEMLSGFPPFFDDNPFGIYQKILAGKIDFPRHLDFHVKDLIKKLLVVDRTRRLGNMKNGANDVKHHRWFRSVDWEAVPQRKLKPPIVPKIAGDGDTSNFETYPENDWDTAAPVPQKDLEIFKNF
Sequence of Mitogen-activated protein kinase kinase kinase kinase 3 (Homo sapiens) (Q8IVH8 whole entry): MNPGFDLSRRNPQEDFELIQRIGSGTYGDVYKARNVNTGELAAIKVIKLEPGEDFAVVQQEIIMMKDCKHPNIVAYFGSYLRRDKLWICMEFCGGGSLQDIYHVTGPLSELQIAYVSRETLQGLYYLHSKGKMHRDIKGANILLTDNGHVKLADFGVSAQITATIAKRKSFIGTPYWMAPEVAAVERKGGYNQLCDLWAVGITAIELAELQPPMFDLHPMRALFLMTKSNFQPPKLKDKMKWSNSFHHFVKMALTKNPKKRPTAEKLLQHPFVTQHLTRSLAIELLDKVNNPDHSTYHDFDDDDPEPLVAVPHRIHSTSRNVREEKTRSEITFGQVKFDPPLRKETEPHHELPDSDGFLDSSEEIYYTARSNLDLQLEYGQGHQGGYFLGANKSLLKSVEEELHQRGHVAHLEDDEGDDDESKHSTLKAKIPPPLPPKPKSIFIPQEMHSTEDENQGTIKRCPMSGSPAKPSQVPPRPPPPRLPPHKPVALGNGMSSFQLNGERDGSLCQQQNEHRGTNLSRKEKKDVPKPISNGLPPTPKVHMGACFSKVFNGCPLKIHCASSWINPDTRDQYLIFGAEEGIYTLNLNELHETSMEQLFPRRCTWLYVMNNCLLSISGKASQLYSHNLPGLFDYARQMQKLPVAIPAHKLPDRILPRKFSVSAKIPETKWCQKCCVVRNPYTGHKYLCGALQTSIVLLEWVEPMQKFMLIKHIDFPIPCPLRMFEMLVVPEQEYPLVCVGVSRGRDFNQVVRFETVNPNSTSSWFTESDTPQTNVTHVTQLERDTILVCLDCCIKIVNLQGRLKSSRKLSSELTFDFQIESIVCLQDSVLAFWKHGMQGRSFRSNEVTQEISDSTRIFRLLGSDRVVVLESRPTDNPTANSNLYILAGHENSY
Sequence of Tyrosine-protein kinase receptor Tie-1 (Homo sapiens) (P35590 whole entry): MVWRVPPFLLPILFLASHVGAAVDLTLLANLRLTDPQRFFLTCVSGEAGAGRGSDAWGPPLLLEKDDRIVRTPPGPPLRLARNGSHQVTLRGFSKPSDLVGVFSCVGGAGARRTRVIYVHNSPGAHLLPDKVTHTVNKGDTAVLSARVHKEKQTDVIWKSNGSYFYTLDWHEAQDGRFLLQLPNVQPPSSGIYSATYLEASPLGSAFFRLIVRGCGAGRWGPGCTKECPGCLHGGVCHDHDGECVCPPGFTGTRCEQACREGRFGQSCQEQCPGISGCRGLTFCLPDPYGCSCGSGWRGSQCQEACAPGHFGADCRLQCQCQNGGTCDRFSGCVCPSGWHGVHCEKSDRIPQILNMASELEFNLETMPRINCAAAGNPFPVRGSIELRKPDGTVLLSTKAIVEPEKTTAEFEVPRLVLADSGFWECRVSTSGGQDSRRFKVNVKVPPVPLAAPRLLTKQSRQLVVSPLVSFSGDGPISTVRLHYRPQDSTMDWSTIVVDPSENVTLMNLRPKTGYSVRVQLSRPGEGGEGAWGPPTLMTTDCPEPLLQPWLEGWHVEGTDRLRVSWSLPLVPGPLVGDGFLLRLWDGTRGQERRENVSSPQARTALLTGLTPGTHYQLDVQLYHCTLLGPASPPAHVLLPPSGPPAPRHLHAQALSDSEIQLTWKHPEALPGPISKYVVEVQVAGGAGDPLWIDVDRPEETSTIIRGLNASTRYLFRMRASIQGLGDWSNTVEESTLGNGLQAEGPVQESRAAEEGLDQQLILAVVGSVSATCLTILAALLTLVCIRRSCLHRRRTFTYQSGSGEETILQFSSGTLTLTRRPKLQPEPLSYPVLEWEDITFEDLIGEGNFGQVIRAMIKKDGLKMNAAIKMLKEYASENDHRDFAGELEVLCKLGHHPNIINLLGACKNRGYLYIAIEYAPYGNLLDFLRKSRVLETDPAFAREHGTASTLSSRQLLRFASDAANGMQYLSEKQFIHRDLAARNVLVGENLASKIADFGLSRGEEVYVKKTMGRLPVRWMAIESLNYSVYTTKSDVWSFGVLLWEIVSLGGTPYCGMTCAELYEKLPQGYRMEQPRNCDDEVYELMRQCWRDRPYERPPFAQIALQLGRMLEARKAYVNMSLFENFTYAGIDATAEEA
Sequence of Death-associated protein kinase 2 (Homo sapiens) (Q9UIK4 whole entry, looked up): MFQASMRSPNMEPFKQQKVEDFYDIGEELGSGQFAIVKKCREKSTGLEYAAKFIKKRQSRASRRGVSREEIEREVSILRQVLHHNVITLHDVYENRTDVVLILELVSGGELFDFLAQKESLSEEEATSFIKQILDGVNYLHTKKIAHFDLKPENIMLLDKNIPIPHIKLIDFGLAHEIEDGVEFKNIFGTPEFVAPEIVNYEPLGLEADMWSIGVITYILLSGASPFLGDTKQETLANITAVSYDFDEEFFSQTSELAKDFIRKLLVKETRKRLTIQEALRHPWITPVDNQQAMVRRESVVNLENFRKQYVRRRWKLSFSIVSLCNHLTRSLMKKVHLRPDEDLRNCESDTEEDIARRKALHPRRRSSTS

O=C(O)[C@@H]1[C@@H](Cn2nnc3ccccc3c2=O)CC[C@H]1C(=O)c1ccc(OCCC2CCOCC2)cc1 [BAY-694]
inactive: residual activity [1] 100% | residual activity [2] 78% | inhibition [3] -7.11% | residual activity [4] 100% | residual activity [5] 97% | residual activity [6] 85% | residual activity [7] 100% | residual activity [8] 100% | residual activity [9] 100% | inhibition [10] 6.4% | residual activity [11] 100% | residual activity [12] 73% | residual activity [13] 95% | residual activity [14] 100% | residual activity [15] 100% | residual activity [16] 94% | residual activity [17] 100% | residual activity [18] 100% | residual activity [19] 98% | residual activity [20] 100% | residual activity [21] 90% | residual activity [22] 88% | residual activity [23] 100% | residual activity [24] 95% | inhibition [25] 21.9% | residual activity [26] 100% | residual activity [27] 75% | residual activity [28] 100% | residual activity [29] 100% | residual activity [30] 100% | residual activity [31] 94% | residual activity [32] 99% | residual activity [33] 100%

O=C(O)[C@H]1[C@H](Cn2nnc3ccccc3c2=O)CC[C@@H]1C(=O)c1ccc(OCCC2CCOCC2)cc1 [BAY-7598]
inactive: residual activity [1] 95% | residual activity [2] 95% | inhibition [3] -5.24% | residual activity [4] 78% | residual activity [5] 94% | residual activity [6] 96% | residual activity [7] 90% | residual activity [8] 75% | residual activity [9] 96% | inhibition [10] 18% | residual activity [11] 100% | residual activity [12] 100% | residual activity [13] 88% | residual activity [14] 100% | residual activity [15] 89% | residual activity [16] 100% | residual activity [17] 96% | residual activity [18] 93% | residual activity [19] 100% | residual activity [20] 100% | residual activity [21] 97% | residual activity [22] 87% | residual activity [23] 100% | residual activity [24] 80% | inhibition [25] 12.5% | residual activity [26] 100% | residual activity [27] 83% | residual activity [28] 87% | residual activity [29] 82% | residual activity [30] 100% | residual activity [31] 77% | residual activity [32] 100% | residual activity [33] 100%
